In ChEMBL document CHEMBL3872207, “Aromatic heterocyclic esters of podophyllotoxin exert anti-MDR activity in human leukemia K562/ADR cells via ROS/MAPK signaling pathways” (Eur J Med Chem, 2016):
Active and inactive are the calls of the source. The calls are words filed in the database; no cut-off is given here.

Legend:
[1] = target: T1, MAP kinase p38 (Homo sapiens) (UniProt O15264+Q15759+Q16539+P53778); experiment: Induction of P38 phosphorylation in human K562/ADR cells assessed as ratio of phosphorylated p38 to beta-actin level at 0.1 uM pretreated with MAPK inhibitor SB203580 for 1 hr followed by compound addition after 48 hrs by Western blotting method (reference value: 0.25); assay type: cell-based
K562/Adr [2] = experiment: Induction of apoptosis in human K562/ADR cells assessed as viable cells at 0.1 uM pretreated with ROS scavenger NAC for 2 hrs followed by compound addition after 48 hrs by Annexin V-APC/7-AAD staining based flow cytometry (reference value: 95.31%); assay type: functional; conditions: read-out: Activity
[3] = Downregulation of CDK1 expression in human K562/ADR cells assessed as ratio of CDK1 to beta-actin level at 0.1 uM pretreated with MAPK inhibitor SP600125for 1 hr followed by compound addition measured after 48 hrs by Western blot analysis (reference value: 0.53); assay type: functional, cell-based
[4] = target: T1, MAP kinase p38 (Homo sapiens); experiment: Induction of P38 phosphorylation in human K562/ADR cells assessed as ratio of phosphorylated p38 to beta-actin level at 0.1 uM pretreated with MAPK inhibitor U0126 for 1 hr followed by compound addition after 48 hrs by Western blotting method (reference value: 0.25); assay type: cell-based
K562/Adr [5] = experiment: Induction of apoptosis in human K562/ADR cells assessed as ratio of cleaved caspase-9 to beta-actin level at 0.1 uM measured after 48 hrs by Western blot analysis (reference value: 0.05); assay type: functional
K562/Adr [6] = experiment: Induction of apoptosis in human K562/ADR cells assessed as membrane blebbing at 0.1 uM measured after 24 hrs by Hoechst33342 staining-based inverted fluorescent microscopic analysis; assay type: functional, cell-based
K562/Adr [7] = experiment: Induction of ERK1/2 phosphorylation in human K562/ADR cells assessed as ratio of phosphorylated ERK1/2 to beta-actin level at 0.1 uM pretreated with MAPK inhibitor SP600125 for 1 hr followed by compound addition after 48 hrs by Western blotting method (reference value: 0.22); assay type: cell-based
[8] = Downregulation of P-gp expression in human K562/ADR cells assessed as ratio of P-gp to beta-actin level at 0.1 uM pretreated with ROS scavenger NAC for 2 hrs followed by compound addition measured after 48 hrs by Western blot analysis (reference value: 0.63); assay type: functional, cell-based
[9] = Downregulation of CDK1 expression in human K562/ADR cells assessed as ratio of CDK1 to beta-actin level at 0.1 uM pretreated with ROS scavenger NAC for 2 hrs followed by compound addition measured after 48 hrs by Western blot analysis (reference value: 0.53); assay type: functional, cell-based
K562/Adr [10] = experiment: Induction of apoptosis in human K562/ADR cells assessed as cell shrinkage at 0.1 uM measured after 24 hrs by Hoechst33342 staining-based inverted fluorescent microscopic analysis; assay type: functional
K562/Adr [11] = experiment: Induction of apoptosis in human K562/ADR cells assessed as ratio of cleaved caspase-8 to beta-actin level at 0.1 uM pretreated with MAPK inhibitor U0126 for 1 hr followed by compound addition measured after 48 hrs by Western blot analysis (reference value: 0.07); assay type: functional
[12] = Downregulation of CyclinB1 expression in human K562/ADR cells assessed as ratio of CyclinB1 to beta-actin level at 0.1 uM pretreated with MAPK inhibitor SP600125 for 1 hr followed by compound addition measured after 48 hrs by Western blot analysis (reference value: 0.77); assay type: functional, cell-based
[13] = Downregulation of CDK2 expression in human K562/ADR cells assessed as ratio of CDK2 to beta-actin level at 0.1 uM pretreated with MAPK inhibitor SB203580 for 1 hr followed by compound addition measured after 48 hrs by Western blot analysis (reference value: 0.65); assay type: functional, cell-based
[14] = Downregulation of CyclinB1 expression in human K562/ADR cells assessed as ratio of CyclinB1 to beta-actin level at 0.1 uM pretreated with ROS scavenger NAC for 2 hrs followed by compound addition measured after 48 hrs by Western blot analysis (reference value: 0.77); assay type: functional, cell-based
K562/Adr [15] = experiment: Induction of apoptosis in human K562/ADR cells assessed as early apoptotic cells at 0.1 uM pretreated with ROS scavenger NAC for 2 hrs followed by compound addition after 48 hrs by Annexin V-APC/7-AAD staining based flow cytometry (reference value: 2.74%); assay type: functional
[16] = target: T1, MAP kinase p38 (Homo sapiens); experiment: Induction of P38 phosphorylation in human K562/ADR cells assessed as ratio of phosphorylated p38 to beta-actin level at 0.1 uM measured after 48 hrs by Western blotting method (reference value: 0.25); assay type: cell-based
[17] = Downregulation of CyclinA expression in human K562/ADR cells assessed as ratio of CyclinA to beta-actin level at 0.1 uM pretreated with MAPK inhibitor SP600125 for 1 hr followed by compound addition measured after 48 hrs by Western blot analysis (reference value: 0.64); assay type: functional, cell-based
[18] = Cell cycle arrest in human K562/ADR cells assessed as accumulation at S-phase at 0.1 uM measured after 48 hrs by propidium iodide staining-based flow cytometry (reference value: 47.29 +/- 2.22%); assay type: functional
K562/Adr [19] = experiment: Induction of apoptosis in human K562/ADR cells assessed as ratio of cleaved PARP to beta-actin level at 0.1 uM pretreated with MAPK inhibitor SB203580 for 1 hr followed by compound addition measured after 48 hrs by Western blot analysis (reference value: 0.04); assay type: functional
[20] = Potency index, ratio of etoposide IC50 to compound IC50 for antiproliferative activity against human K562/ADR cells; assay type: functional
[21] = Downregulation of CDK2 expression in human K562/ADR cells assessed as ratio of CDK2 to beta-actin level at 0.1 uM pretreated with MAPK inhibitor SP600125 for 1 hr followed by compound addition measured after 48 hrs by Western blot analysis (reference value: 0.65); assay type: functional, cell-based
[22] = Downregulation of P-gp expression in human K562/ADR cells assessed as ratio of P-gp to beta-actin level at 0.1 uM pretreated with MAPK inhibitor SP600125 for 1 hr followed by compound addition measured after 48 hrs by Western blot analysis (reference value: 0.63); assay type: functional, cell-based
[23] = Antiproliferative activity against human K562 cells measured after 72 hrs by CCK8 assay; assay type: functional, cell-based; conditions: K562, 72 h
K562/Adr [24] = experiment: Induction of apoptosis in human K562/ADR cells assessed as ratio of cleaved caspase-3 to beta-actin level at 0.1 uM pretreated with MAPK inhibitor SB203580 for 1 hr followed by compound addition measured after 48 hrs by Western blot analysis (reference value: 0.06); assay type: functional
K562/Adr [25] = experiment: Induction of apoptosis in human K562/ADR cells assessed as ratio of cleaved caspase-3 to beta-actin level at 0.1 uM pretreated with MAPK inhibitor SP600125 for 1 hr followed by compound addition measured after 48 hrs by Western blot analysis (reference value: 0.06); assay type: functional
K562/Adr [26] = experiment: Induction of apoptosis in human K562/ADR cells assessed as ratio of cleaved caspase-8 to beta-actin level at 0.1 uM pretreated with MAPK inhibitor SB203580 for 1 hr followed by compound addition measured after 48 hrs by Western blot analysis (reference value: 0.07); assay type: functional

COc1cc([C@@H]2c3cc4c(cc3[C@H](OC(=O)c3ccco3)[C@H]3COC(=O)[C@H]23)OCO4)cc(OC)c1OC
Ratio [1]: 0.02 | viability at 0.1 µM (K562/Adr [2]): 65.5% | Ratio [3]: 0.19 | Ratio [4]: 0.21 | Ratio (K562/Adr [5]): 0.69 | Activity (K562/Adr [6]): Active | Ratio (K562/Adr [7]): 0.06 | Ratio [8]: 0.66 | Ratio [9]: 0.49 | Activity (K562/Adr [10]): Active | Ratio (K562/Adr [11]): 0.42 | Ratio [12]: 0.25 | Ratio [13]: 0.24 | Ratio [14]: 0.66 | Activity (K562/Adr [15]): 8.06% | Ratio [16]: 0.46 | Ratio [17]: 0.31 | Activity [18]: 60.8% | Ratio (K562/Adr [19]): 0.48 | Ratio IC50 [20]: 69.093 | Ratio [21]: 0.22 | Ratio [22]: 0.34 | IC50 [23]: 25 nM | Ratio (K562/Adr [24]): 0.52 | Ratio (K562/Adr [25]): 0.51 | Ratio (K562/Adr [26]): 0.51
